Laboratory results taken from patent US20230303569A1, “HETEROCYCLIC COMPOUNDS AS THERAPEUTIC AGENTS” (Arisan Therapeutics Inc., priority 2021, published 2023).
Where two headings read alike, the source gives them in different places.

How the values were obtained:
Format in all cases: cell-based
[1] = biological target: T1, human Nav1.5 (late current) (Homo sapiens, UniProt Q14524); assay: Nav1.5 Late Current Assay (QPatch HT whole-cell patch clamp, 30 nM ATX-II); conditions: HEK293 cells stably expressing human Nav1.5, pH 7.3, late current with 30 nM ATX-II, read-out: percent inhibition hNav1.5 Late (5 uM)
T1 construct: host or cells: HEK293
T1 sequence (Q14524 whole entry): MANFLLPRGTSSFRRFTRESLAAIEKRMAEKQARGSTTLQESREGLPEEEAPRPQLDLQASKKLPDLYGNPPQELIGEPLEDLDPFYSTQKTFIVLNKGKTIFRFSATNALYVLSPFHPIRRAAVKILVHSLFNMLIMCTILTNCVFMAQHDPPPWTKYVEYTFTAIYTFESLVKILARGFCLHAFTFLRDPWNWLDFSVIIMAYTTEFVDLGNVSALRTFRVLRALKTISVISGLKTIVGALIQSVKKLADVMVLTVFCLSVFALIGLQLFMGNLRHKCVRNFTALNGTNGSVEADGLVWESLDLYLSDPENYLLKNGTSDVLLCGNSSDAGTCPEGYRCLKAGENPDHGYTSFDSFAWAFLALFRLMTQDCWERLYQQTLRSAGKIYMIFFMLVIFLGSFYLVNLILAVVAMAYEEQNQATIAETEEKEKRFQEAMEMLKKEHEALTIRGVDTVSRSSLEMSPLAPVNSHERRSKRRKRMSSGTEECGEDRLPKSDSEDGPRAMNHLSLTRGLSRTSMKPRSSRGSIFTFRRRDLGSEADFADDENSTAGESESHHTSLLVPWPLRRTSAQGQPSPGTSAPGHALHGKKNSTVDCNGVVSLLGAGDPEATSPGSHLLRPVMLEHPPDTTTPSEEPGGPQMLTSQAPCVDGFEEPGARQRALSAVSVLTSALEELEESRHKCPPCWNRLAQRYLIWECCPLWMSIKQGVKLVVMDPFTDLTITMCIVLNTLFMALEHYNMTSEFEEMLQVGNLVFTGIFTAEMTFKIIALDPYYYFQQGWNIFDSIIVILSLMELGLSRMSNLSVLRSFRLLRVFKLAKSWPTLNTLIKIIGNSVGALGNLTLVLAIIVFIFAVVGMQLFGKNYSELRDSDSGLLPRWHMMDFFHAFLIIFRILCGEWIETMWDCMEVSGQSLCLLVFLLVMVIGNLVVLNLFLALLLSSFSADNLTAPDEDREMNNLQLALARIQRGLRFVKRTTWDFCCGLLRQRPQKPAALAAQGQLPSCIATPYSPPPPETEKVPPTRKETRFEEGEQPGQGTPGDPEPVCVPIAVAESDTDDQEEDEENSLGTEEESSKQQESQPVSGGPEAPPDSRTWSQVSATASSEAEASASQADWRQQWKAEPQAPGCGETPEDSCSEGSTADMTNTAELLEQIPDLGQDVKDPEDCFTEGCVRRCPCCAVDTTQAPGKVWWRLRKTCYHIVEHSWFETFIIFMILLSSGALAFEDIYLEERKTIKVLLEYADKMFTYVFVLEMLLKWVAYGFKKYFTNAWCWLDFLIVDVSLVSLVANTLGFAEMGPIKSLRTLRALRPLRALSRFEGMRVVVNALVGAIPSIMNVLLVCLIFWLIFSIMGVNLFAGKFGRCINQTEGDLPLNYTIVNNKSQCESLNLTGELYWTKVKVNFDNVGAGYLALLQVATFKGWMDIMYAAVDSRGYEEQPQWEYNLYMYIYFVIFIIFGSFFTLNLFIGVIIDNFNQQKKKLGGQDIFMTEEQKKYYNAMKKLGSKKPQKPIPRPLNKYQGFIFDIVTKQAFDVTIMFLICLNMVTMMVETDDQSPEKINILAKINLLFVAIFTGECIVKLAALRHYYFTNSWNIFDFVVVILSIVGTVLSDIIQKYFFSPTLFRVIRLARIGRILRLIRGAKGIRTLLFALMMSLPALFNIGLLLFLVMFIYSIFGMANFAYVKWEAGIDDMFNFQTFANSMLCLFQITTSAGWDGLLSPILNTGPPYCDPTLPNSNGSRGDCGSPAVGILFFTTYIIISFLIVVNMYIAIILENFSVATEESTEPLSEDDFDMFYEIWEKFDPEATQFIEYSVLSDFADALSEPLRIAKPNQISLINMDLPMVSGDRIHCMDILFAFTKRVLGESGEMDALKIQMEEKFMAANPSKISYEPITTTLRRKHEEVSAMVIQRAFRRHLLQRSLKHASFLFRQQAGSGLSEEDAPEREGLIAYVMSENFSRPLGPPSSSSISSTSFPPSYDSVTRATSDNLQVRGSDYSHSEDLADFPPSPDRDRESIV
Procedure: (§1) In vitro Na+ Current Inhibition Assays were performed by Eurofins Discovery (St Charles, MO). All compound functional activity determinations were determined through electrophysiological analyses of Na+ currents in HEK293 cells expressing a stably transfected Na+ channel (human Nav1.1, 1.2, 1.3, 1.5, 1.6, 1.7, or 1.8). After harvesting with Accutase cells are maintained in serum free medium at room temperature prior to electrophysiological recording utilizing the QPatch HT automated whole-cell patch-clamp platform (Sophion Bioscience, Woburn MA). Stock solution aliquots of the test compound are prepared in DMSO at 300× the final assay concentrations, and stored at −20° C. until the day of assay. On the day of the assay, an aliquot of the stock solution is thawed and diluted into external solution (137 mM NaCl, 4 mM KCl, 1 mM MgCl2, 1.8 mM CaCl2, 10 mM HEPES, 10 mM Glucose (pH 7.3, titrated with 10M NaOH) to make final test concentrations. A final concentration of 0.33% DMSO is maintained for each concentration of the assay compounds. Internal solution for recordings of Na+ consist consists of 100 mM CsF, 45 mM CsCl, 5 mM NaCl, 10 mM HEPES, 5 mM EGTA (pH 7.3, titrated with 1M CsOH).
Onset and steady state induction of late Nav1.5 current was measured using a pulse pattern, repeated every 5 sec, consisting of a hyperpolarizing pulse to −120 mV for a 200 ms duration, depolarization to −15 mV amplitude for a 40 ms duration, followed by step to 40 mV for 200 ms and finally a 100 ms ramp (1.2 V/s) to a holding potential of −80 mV. Each concentration of compound was applied for 5 minutes. The assay was performed at room temperature. After establishing vehicle control condition, all further addition of external solutions contain 30 nM ATX-II to activate late currents. Each concentration of compound was also co-applied with 30 nM ATXII to estimate the Nav1.5 late current inhibition. […]. ATXII was used as the agonist positive control and was tested concurrently with the test compound. Ranolazine was used as the positive control and was tested concurrently with the test compound.
Nav1.5 late current was measured as the total charge flowing through the Nav1.5 channels (area under the curve) 5 ms after the Nav1.5 peak current till the end of the test pulse and as charge at their maxima during the ramp. Individual cell results were normalized to their respective vehicle control and the results were averaged. The sodium current was assessed in 30 nM ATXII as vehicle control conditions and then at the end of each five (5) minute compound application in the presence of 30 nM ATXII. Individual cell result was normalized to 30 nM ATXII vehicle control amplitude and the mean±SEM calculated for each compound concentration.

[2] = biological target: T2, human Nav1.5 (pulse 1, tonic inhibition) (Homo sapiens, UniProt Q14524); assay: Two pulse assay protocol, Nav1.5; conditions: HEK293 cells stably expressing human Nav1.5, pH 7.3, peak current, pulse 1 (tonic), read-out: percent inhibition hNav1.5, Pulse 1 (5 uM)
T2 construct: host or cells: HEK293
Procedure: as §1
(§2) Two pulse assay protocol for human Nav1.1, 1.2, 1.3, 1.5, 1.6, 1.7, and 1.8 channels. Mammalian cultured cells expressing the indicated human Nav1.1, 1.2, 1.3, 1.5, 1.6, 1.7 or 1.8 channels were assayed using the The QPatch HT (Sophion Bioscience, Woburn MA) automated system with an intracellular solution (mM) of 100 CsF, 45 CsCl, 5 NaCl, 10 HEPES, 5 EGTA (pH 7.3, titrated with 1M CsOH) and extracellular solution (mM) of 137 NaCl, 4 KCl, 1 MgCl2, 1.8 CaCl2, 10 HEPES, 10 Glucose (pH 7.3, titrated with 10M NaOH). Onset and steady state block of the sodium channel was measured using a pulse pattern, repeated every 20 seconds (s) from a holding potential of −120 mV for 100 ms, and then pulsed to 0 mV for 500 ms to inactivate the Na channels and facilitate inactivated state-dependent binding of the test compounds. The cell membranes were then stepped back to −120 mV for 10 ms to recover from inactivation into resting or closed state (channels with test compound bound to them will not recover from inactivation and will not open) before stepping to 0 mV for 50 ms (pulse 2) to measure Na channels that are available to open. Peak current was measured during the step to 0 mV at pulse 1 and 2 to measure tonic and state-dependent inhibition. Compound activities were assessed by dividing post current amplitude (at the end of each five (5) minute compound application) by the vehicle control amplitude and the mean calculated for each compound concentration. Tetracaine was used as a positive control and was tested concurrently with the test compounds. Current amplitudes in excess of 200 pA at the control stage were analyzed. The amplitude of the current was calculated by measuring the difference between the peak inward current on stepping to 0 mV (i.e. peak of the current) and remaining current at the end of the step. The current was assessed in vehicle control conditions and then at the end of each five (5) minute compound application.

[3] = biological target: T3, human Nav1.5 (pulse 2, state-dependent inhibition) (Homo sapiens, UniProt Q14524); assay: Two pulse assay protocol, Nav1.5; conditions: HEK293 cells stably expressing human Nav1.5, pH 7.3, peak current, pulse 2 (state-dependent), read-out: percent inhibition hNav1.5, Pulse 2 (5 uM)
T3 construct: host or cells: HEK293
T3 sequence (Q14524 whole entry): as above
Procedure: as §1, §2

human Nav1.7 = biological target: T4, human Nav1.7 (Homo sapiens, UniProt Q15858); assay: Two pulse assay protocol, Nav1.7; conditions: peak current
T4 construct: host or cells: HEK293
Procedure: as §1, §2

human Nav1.8 = biological target: T5, human Nav1.8 (Homo sapiens, UniProt Q9Y5Y9); assay: Two pulse assay protocol, Nav1.8; conditions: peak current
T5 construct: host or cells: HEK293
Procedure: as §1, §2

human Nav1.6 = biological target: T6, human Nav1.6 (Homo sapiens, UniProt Q9UQD0); assay: Two pulse assay protocol, Nav1.6; conditions: 5 uM, peak current
T6 construct: host or cells: HEK293
Procedure: as §1, §2

[4] = pulse 1 (tonic), read-out: percent inhibition hNav1.7, Pulse 1 (5 uM)
[5] = pulse 2 (state-dependent), read-out: percent inhibition hNav1.7, Pulse 2 (5 uM)
[6] = pulse 1 (tonic), read-out: percent inhibition hNav1.8, Pulse 1 (5 uM)
[7] = pulse 2 (state-dependent), read-out: percent inhibition hNav1.8, Pulse 2 (5 uM)
[8] = pulse 1 (tonic), read-out: percent inhibition hNav1.6, Pulse 1 (5 uM)
[9] = pulse 2 (state-dependent), read-out: percent inhibition hNav1.6, Pulse 2 (5 uM)

inhibition at 5 µM (human Nav1.7; [4])	inhibition at 5 µM (human Nav1.7; [5])	inhibition at 5 µM (human Nav1.6; [8])	inhibition at 5 µM (human Nav1.6; [9])	SMILES	inhibition at 5 min, 5 uM [1]	inhibition at 5 min, 5 µM [2]	inhibition at 5 min, 5 µM [3]	inhibition at 5 µM (human Nav1.8; [6])	inhibition at 5 µM (human Nav1.8; [7])
				CC(C)Oc1ccc(-c2cnc3ccc(-c4ccc(C(N)=O)cc4)cn23)cc1 [Example C16, 4-{3-[4-(propan-2-yloxy)phenyl]imidazo[1,2-a]pyridin-6-yl}benzamide]	< 50%				
				CC(C)Oc1ccc(-c2cnc3ccc(-c4cnn(C5CC5)c4)cn23)cc1 [Example C17, 1-cyclopropyl-4-{3-[4-(propan-2-yloxy)phenyl]imidazo[1,2-a]pyridin-6-yl}-1H-pyrazole]	< 50%				
				Cc1cc2ncc(-c3ccc(C(C)(C)O)cc3)n2cc1-c1ccc(OC(C)C)cc1 [Example C56, 2-(4-(6-(4-isopropoxyphenyl)-7-methylimidazo[1,2-a]pyridin-3-yl)phenyl)propan-2-ol]	< 50%				
				COc1cc2ncc(-c3ccc(OC(C)C)cc3)n2cc1-c1ccc(OC(C)C)cc1 [Example C49, 7-methoxy-3,6-bis[4-(propan-2-yloxy)phenyl]imidazo[1,2-a]pyridine]	< 50%				
				CC(C)Oc1ccc(-c2ccc3ncc(-c4cccc(OC(C)C)c4)n3c2)cc1 [Example C35, 3-[3-(propan-2-yloxy)phenyl]-6-[4-(propan-2-yloxy)phenyl]imidazo[1,2-a]pyridine]	> 90%				
< 50%	> 90%	< 50%	> 90%	CC(C)Oc1ccc(-c2ccc3ncc(-c4ccc(C(C)(C)C)nc4)n3c2)cc1 [Example C89, 3-(6-(tert-butyl)pyridin-3-yl)-6-(4-isopropoxyphenyl)imidazo[1,2-a]pyridine]		< 50%	50 to 90%		
< 50%	50 to 90%	< 50%	> 90%	CC(C)Oc1ccc(-c2cnc3ccc(-c4ccc(OC(C)C)c(F)c4)cn23)cc1 [Example C24, 6-[3-fluoro-4-(propan-2-yloxy)phenyl]-3-[4-(propan-2-yloxy)phenyl]imidazo[1,2-a]pyridine]		< 50%	> 90%		
				CC(C)Oc1ccc(-c2ccc3ncc(-c4ccc(OC(F)F)cc4)n3c2)cc1 [Example C40, 3-[4-(difluoromethoxy)phenyl]-6-[4-(propan-2-yloxy)phenyl]imidazo[1,2a]pyridine]	< 50%				
< 50%	> 90%	< 50%	> 90%	CC(C)Oc1ccc(-c2ccc3ncc(-c4ccc(C(C)(C)C)cc4)n3c2)cc1 [Example C87, 3-(4-(tert-butyl)phenyl)-6-(4-isopropoxyphenyl)imidazo[1,2-a]pyridine]		< 50%	> 90%		
				CC(C)Oc1ccc(-c2cn3c(-c4ccc(OC(C)C)cc4)cnc3cc2C#N)cc1 [Example C52, 3,6-bis(4-isopropoxyphenyl)imidazo[1,2-a]pyridine-7-carbonitrile]	< 50%				
		< 50%	< 50%	FC(F)(F)Oc1ccc(-c2cnc3ccc(C(F)(F)F)cn23)cc1 [Example C60, 3-(4-(trifluoromethoxy)phenyl)-6-(trifluoromethyl)imidazo[1,2-a]pyridine]				< 50%	< 50%
				CC(C)Oc1ccc(-c2cnc3ccc(-c4ccc(OC(F)F)cc4)cn23)cc1 [Example C4, 6-[4-(difluoromethoxy)phenyl]-3-[4-(propan-2-yloxy)phenyl]imidazo[1,2-a]pyridine]	> 90%				
		< 50%	< 50%	CC(C)Oc1ccc(-c2cnc3ccc(C(F)(F)F)cn23)cc1 [Example C61, 3-(4-isopropoxyphenyl)-6-(trifluoromethyl)imidazo[1,2-a]pyridine]				< 50%	< 50%
< 50%	> 90%	< 50%	> 90%	Cc1cc(-c2cnc3ccc(-c4ccc(OC(C)C)cc4)cn23)cnc1OC(C)C [Example C71, 3-(6-isopropoxy-5-methylpyridin-3-yl)-6-(4-isopropoxyphenyl)imidazo[1,2-a]pyridine]		< 50%	> 90%		
				CC(C)Oc1ccc(-c2cnc3ccc(-c4ccc(C5(N)CC5)cc4)cn23)cc1 [Example C15, 1-(4-{3-[4-(propan-2-yloxy)phenyl]imidazo[1,2-a]pyridin-6-yl}phenyl)cyclopropan-1-amine]	< 50%				

SMILES	inhibition at 5 µM (human Nav1.7; [4])	inhibition at 5 µM (human Nav1.7; [5])	inhibition at 5 µM (human Nav1.6; [8])	inhibition at 5 µM (human Nav1.6; [9])	inhibition at 5 min, 5 uM [1]	inhibition at 5 min, 5 µM [2]	inhibition at 5 min, 5 µM [3]	inhibition at 5 µM (human Nav1.8; [6])	inhibition at 5 µM (human Nav1.8; [7])
CS(=O)(=O)NC(=O)c1cc2ncc(-c3ccc(OC(F)(F)F)cc3)n2cc1-c1ccc(OC(F)(F)F)cc1 [Example C67, N-(methylsulfonyl)-3,6-bis(4-(trifluoromethoxy)phenyl)imidazo[1,2-a]pyridine-7-carboxamide]	< 50%	< 50%				< 50%	< 50%	< 50%	< 50%
CC(C)Oc1ccc(-c2ccc3ncc(-c4ccc(OC(C)(C)C)nc4)n3c2)cc1 [Example C90, 3-(6-(tert-butoxy)pyridin-3-yl)-6-(4-isopropoxyphenyl)imidazo[1,2-a]pyridine]	< 50%	> 90%	< 50%	> 90%		< 50%	> 90%		
CS(=O)(=O)NC(=O)c1cc2ncc(-c3ccc(OC(F)(F)F)cc3)n2cc1-c1ccccc1 [Example C68, N-(methylsulfonyl)-6-phenyl-3-(4-(trifluoromethoxy)phenyl)imidazo[1,2-a]pyridine-7-carboxamide]	< 50%	< 50%				< 50%	< 50%	< 50%	< 50%
